Assay results taken from patent publication US20100137313A1 (ASTRAZENECA AB, priority 2008, published 2010).

Target: S. pneumoniae Topoisomerase IV ATPase (ParE) (Streptococcus pneumoniae serotype 4, UniProt Q59961)
Experiment: S. pneumoniae Topoisomerase IV ATPase inhibition
Format: biochemical
Details: values marked * are an average of two or more data points, read-out: % Inh (13 μM) of S. pneumoniae Topoisomerase IV ATPase
In short: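 Phosphate-release ATPase assay: 1.25 nM ParE, 160 μM ATP, DNA-stimulated. Quench with malachite green/molybdate in 1 M HCl, read 650 nm; IC50 from 10-point dose series.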

Sequence of S. pneumoniae Topoisomerase IV ATPase (ParE) (Q59961 whole entry): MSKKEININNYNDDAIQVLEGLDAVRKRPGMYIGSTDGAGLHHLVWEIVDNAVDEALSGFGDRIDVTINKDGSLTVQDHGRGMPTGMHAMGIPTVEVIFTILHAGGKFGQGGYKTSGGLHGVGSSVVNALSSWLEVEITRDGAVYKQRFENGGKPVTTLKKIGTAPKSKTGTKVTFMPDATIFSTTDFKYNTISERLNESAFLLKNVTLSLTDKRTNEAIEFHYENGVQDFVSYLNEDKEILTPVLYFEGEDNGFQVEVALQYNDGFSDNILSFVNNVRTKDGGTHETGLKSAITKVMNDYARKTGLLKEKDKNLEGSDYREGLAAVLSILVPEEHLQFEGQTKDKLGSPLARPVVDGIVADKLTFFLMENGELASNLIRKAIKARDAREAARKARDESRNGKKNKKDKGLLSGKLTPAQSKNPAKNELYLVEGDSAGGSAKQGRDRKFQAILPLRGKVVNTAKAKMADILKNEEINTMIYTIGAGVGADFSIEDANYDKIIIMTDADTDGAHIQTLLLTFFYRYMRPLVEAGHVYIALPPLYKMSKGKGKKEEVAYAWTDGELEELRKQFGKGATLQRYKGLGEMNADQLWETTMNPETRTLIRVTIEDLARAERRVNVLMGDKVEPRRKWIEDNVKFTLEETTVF

Row | Structure (SMILES) | inhibition at 13 µM [%]
1 | CONC(=O)c1cncc(-c2cnc(Nc3cc(OC)cc(OC)c3)nc2-n2nc(C(F)(F)F)cc2C)c1 [Example 681, 5-{2-[(3,5-dimethoxyphenyl)amino]-4-[5-methyl-3-(trifluoromethyl)-1H-pyrazol-1-yl]pyrimidin-5-yl}-N-methoxypyridine-3-carboxamide] | 100
2 | COc1cc(Nc2ncc(-c3cncc(C(=O)NCCO)c3)c(-n3ccc(C(F)(F)F)n3)n2)cc(OC)c1 [Example 682, 5-{2-[(3,5-dimethoxyphenyl)amino]-4-[3-(trifluoromethyl)-1H-pyrazol-1-yl]pyrimidin-5-yl}-N-(2-hydroxyethyl)pyridine-3-carboxamide] | 100
3 | COc1cc(Nc2ncc(-c3cncc(C(=O)NCCO)c3)c(-n3nc(C(F)(F)F)cc3C)n2)cc(OC)c1 [Example 683, 5-{2-[(3,5-dimethoxyphenyl)amino]-4-[5-methyl-3-(trifluoromethyl)-1H-pyrazol-1-yl]pyrimidin-5-yl}-N-(2-hydroxyethyl)pyridine-3-carboxamide] | 100
4 | COc1cc(Nc2ncc(-c3cncc(C(=O)NCCS(C)(=O)=O)c3)c(-n3ccc(C(F)(F)F)n3)n2)cc(OC)c1 [Example 684, 5-{2-[(3,5-dimethoxyphenyl)amino]-4-[3-(trifluoromethyl)-1H-pyrazol-1-yl]pyrimidin-5-yl}-N-[2-(methylsulfonyl)ethyl]pyridine-3-carboxamide] | 100
5 | COc1cc(Nc2ncc(-c3cncc(C(=O)NCCS(C)(=O)=O)c3)c(-n3nc(C(F)(F)F)cc3C)n2)cc(OC)c1 [Example 685, 5-{2-[(3,5-dimethoxyphenyl)amino]-4-[5-methyl-3-(trifluoromethyl)-1H-pyrazol-1-yl]pyrimidin-5-yl}-N-[2-(methylsulfonyl)ethyl]pyridine-3-carboxamide] | 100
6 | COc1cc(Nc2ncc(-c3cncc(C(=O)NS(C)(=O)=O)c3)c(-n3ccc(C(F)(F)F)n3)n2)cc(OC)c1 [Example 686, 5-{2-[(3,5-dimethoxyphenyl)amino]-4-[3-(trifluoromethyl)-1H-pyrazol-1-yl]pyrimidin-5-yl}-N-(methylsulfonyl)pyridine-3-carboxamide] | 100
7 | COc1cc(Nc2ncc(-c3cncc(C(=O)NS(C)(=O)=O)c3)c(-n3nc(C(F)(F)F)cc3C)n2)cc(OC)c1 [Example 687, 5-{2-[(3,5-dimethoxyphenyl)amino]-4-[5-methyl-3-(trifluoromethyl)-1H-pyrazol-1-yl]pyrimidin-5-yl}-N-(methylsulfonyl)pyridine-3-carboxamide] | 100
8 | CC(=O)c1cccc(Nc2ncc(-c3cccc(/C=C/C(=O)O)c3)c(-n3ccc(C(F)(F)F)n3)n2)c1 [Example 688, (2E)-3-(3-{2-[(3-acetylphenyl)amino]-4-[3-(trifluoromethyl)-1H-pyrazol-1-yl]pyrimidin-5-yl}phenyl)prop-2-enoic acid] | 99
9 | CC(=O)c1cccc(Nc2ncc(-c3cccc(/C=C/C(=O)O)c3)c(-n3nc(C(F)(F)F)cc3C)n2)c1 [Example 689, (2E)-3-(3-{2-[(3-acetylphenyl)amino]-4-[5-methyl-3-(trifluoromethyl)-1H-pyrazol-1-yl]pyrimidin-5-yl}phenyl)prop-2-enoic acid] | 99
10 | NC(=O)c1cccc(Nc2ncc(-c3cccc(/C=C/C(=O)O)c3)c(-n3ccc(C(F)(F)F)n3)n2)c1 [Example 690, (2E)-3-(3-{2-[(3-carbamoylphenyl)amino]-4-[3-(trifluoromethyl)-1H-pyrazol-1-yl]pyrimidin-5-yl}phenyl)prop-2-enoic acid] | 100
11 | N#Cc1cccc(Nc2ncc(-c3cccc(/C=C/C(=O)O)c3)c(-n3ccc(C(F)(F)F)n3)n2)c1 [Example 692, (2E)-3-(3-{2-[(3-cyanophenyl)amino]-4-[3-(trifluoromethyl)-1H-pyrazol-1-yl]pyrimidin-5-yl}phenyl)prop-2-enoic acid] | 97
12 | Cc1cc(C(F)(F)F)nn1-c1nc(Nc2cccc(C#N)c2)ncc1-c1cccc(/C=C/C(=O)O)c1 [Example 693, (2E)-3-(3-{2-[(3-cyanophenyl)amino]-4-[5-methyl-3-(trifluoromethyl)-1H-pyrazol-1-yl]pyrimidin-5-yl}phenyl)prop-2-enoic acid] | 97
13 | Cc1cccc(Nc2ncc(-c3cccc(/C=C/C(=O)O)c3)c(-n3ccc(C(F)(F)F)n3)n2)c1 [Example 694, (2E)-3-(3-{2-[(3-methylphenyl)amino]-4-[3-(trifluoromethyl)-1H-pyrazol-1-yl]pyrimidin-5-yl}phenyl)prop-2-enoic acid] | 100
14 | Cc1cccc(Nc2ncc(-c3cccc(/C=C/C(=O)O)c3)c(-n3nc(C(F)(F)F)cc3C)n2)c1 [Example 695, (2E)-3-(3-{2-[(3-methylphenyl)amino]-4-[5-methyl-3-(trifluoromethyl)-1H-pyrazol-1-yl]pyrimidin-5-yl}phenyl)prop-2-enoic acid] | 100
15 | Cc1cccc(Nc2ncc(-c3cncc(C(=O)O)c3)c(-n3nc(C(F)(F)F)cc3C)n2)c1 [Example 711, 5-{2-[(3-methylphenyl)amino]-4-[5-methyl-3-(trifluoromethyl)-1H-pyrazol-1-yl]pyrimidin-5-yl}pyridine-3-carboxylic acid] | 100
16 | COc1ncc(-c2cnc(Nc3cccc(C(C)=O)c3)nc2-n2ccc(C(F)(F)F)n2)cc1C(=O)O [Example 720, 5-{2-[(3-acetylphenyl)amino]-4-[3-(trifluoromethyl)-1H-pyrazol-1-yl]pyrimidin-5-yl}-2-methoxypyridine-3-carboxylic acid] | 100
17 | COc1ncc(-c2cnc(Nc3cccc(C(C)=O)c3)nc2-n2nc(C(F)(F)F)cc2C)cc1C(=O)O [Example 721, 5-{2-[(3-acetylphenyl)amino]-4-[5-methyl-3-(trifluoromethyl)-1H-pyrazol-1-yl]pyrimidin-5-yl}-2-methoxypyridine-3-carboxylic acid] | 100
18 | COc1ncc(-c2cnc(Nc3cccc(C(N)=O)c3)nc2-n2ccc(C(F)(F)F)n2)cc1C(=O)O [Example 722, 5-{2-[(3-carbamoylphenyl)amino]-4-[3-(trifluoromethyl)-1H-pyrazol-1-yl]pyrimidin-5-yl}-2-methoxypyridine-3-carboxylic acid] | 93
19 | COc1ncc(-c2cnc(Nc3cccc(C(N)=O)c3)nc2-n2nc(C(F)(F)F)cc2C)cc1C(=O)O [Example 723, 5-{2-[(3-carbamoylphenyl)amino]-4-[5-methyl-3-(trifluoromethyl)-1H-pyrazol-1-yl]pyrimidin-5-yl}-2-methoxypyridine-3-carboxylic acid] | 94
20 | COc1ncc(-c2cnc(Nc3cccc(C)c3)nc2-n2ccc(C(F)(F)F)n2)cc1C(=O)O [Example 726, 2-methoxy-5-{2-[(3-methylphenyl)amino]-4-[3-(trifluoromethyl)-1H-pyrazol-1-yl]pyrimidin-5-yl}pyridine-3-carboxylic acid] | 100
21 | COc1cc(C#N)cc(Nc2ncc(-c3cccc(/C=C/C(=O)O)c3)c(-n3ccc(C(F)(F)F)n3)n2)c1 [Example 728, (2E)-3-(3-{2-[(3-cyano-5-methoxyphenyl)amino]-4-[3-(trifluoromethyl)-1H-pyrazol-1-yl]pyrimidin-5-yl}phenyl)prop-2-enoic acid] | 100
22 | COc1cc(C#N)cc(Nc2ncc(-c3cccc(/C=C/C(=O)O)c3)c(-n3nc(C(F)(F)F)cc3C)n2)c1 [Example 729, (2E)-3-(3-{2-[(3-cyano-5-methoxyphenyl)amino]-4-[5-methyl-3-(trifluoromethyl)-1H-pyrazol-1-yl]pyrimidin-5-yl}phenyl)prop-2-enoic acid] | 89
23 | COc1cc(C#N)cc(Nc2ncc(-c3cncc(C(=O)O)c3)c(-n3ccc(C(F)(F)F)n3)n2)c1 [Example 732, 5-{2-[(3-cyano-5-methoxyphenyl)amino]-4-[3-(trifluoromethyl)-1H-pyrazol-1-yl]pyrimidin-5-yl}pyridine-3-carboxylic acid] | 100
24 | COc1cc(C#N)cc(Nc2ncc(-c3cncc(C(=O)O)c3)c(-n3nc(C(F)(F)F)cc3C)n2)c1 [Example 733, 5-{2-[(3-cyano-5-methoxyphenyl)amino]-4-[5-methyl-3-(trifluoromethyl)-1H-pyrazol-1-yl]pyrimidin-5-yl}pyridine-3-carboxylic acid] | 100
25 | COc1cc(C#N)cc(Nc2ncc(-c3cnc(OC)c(C(=O)O)c3)c(-n3ccc(C(F)(F)F)n3)n2)c1 [Example 736, 5-{2-[(3-cyano-5-methoxyphenyl)amino]-4-[3-(trifluoromethyl)-1H-pyrazol-1-yl]pyrimidin-5-yl}-2-methoxypyridine-3-carboxylic acid] | 100
26 | COc1cc(C#N)cc(Nc2ncc(-c3cnc(OC)c(C(=O)O)c3)c(-n3nc(C(F)(F)F)cc3C)n2)c1 [Example 737, 5-{2-[(3-cyano-5-methoxyphenyl)amino]-4-[5-methyl-3-(trifluoromethyl)-1H-pyrazol-1-yl]pyrimidin-5-yl}-2-methoxypyridine-3-carboxylic acid] | 97
27 | COc1ncc(-c2cnc(Nc3cccc(Cl)c3)nc2-n2ccc(C(F)(F)F)n2)cc1C(=O)O [Example 742, 5-{2-[(3-chlorophenyl)amino]-4-[3-(trifluoromethyl)-1H-pyrazol-1-yl]pyrimidin-5-yl}-2-methoxypyridine-3-carboxylic acid] | 100
28 | COc1ncc(-c2cnc(Nc3cccc(Cl)c3)nc2-n2nc(C(F)(F)F)cc2C)cc1C(=O)O [Example 743, 5-{2-[(3-chlorophenyl)amino]-4-[5-methyl-3-(trifluoromethyl)-1H-pyrazol-1-yl]pyrimidin-5-yl}-2-methoxypyridine-3-carboxylic acid] | 94
